Measured values from publication PMC10150354, “Linearization of the Brevicidine and Laterocidine Lipopeptides Yields Analogues That Retain Full Antibacterial Activity” (Journal of Medicinal Chemistry, 2023).
Values after ≈ are worked out from the molar mass of the structure shown. Where a SMILES comes first, the peptide text is derived from it. Bridges are numbered along the chain shown (N, C = ends). [ ]: non-standard residue; d: D form. The star is where a group is joined. ξ: configuration not given here. Octanoyl(7-Me) = CC(C)CCCCCC(=O)*; Hexanoyl(4ξ-Me) = CCC(C)CCC(=O)*; dOrn = NCCC[C@@H](N)C(=O)O; Orn = NCCC[C@H](N)C(=O)O; Dap = NC[C@H](N)C(=O)O

How the values were obtained:
K. pneumoniae ATCC 13883 = type: cell-based, Klebsiella pneumoniae; settings: microbroth dilution per CLSI, MHB, 18 h at 37 °C, visual inspection, three technical replicates
Protocol: (§1) Linear laterocidine (LL-OH, 4) and linear brevicidine (LB-OH, 5) were first synthesized by Fmoc SPPS, starting from 2-chlorotrityl (2-CT) chloride resin. The antibacterial activity of these peptides was then compared to brevicidine (1) and laterocidine (2) using minimum inhibitory concentration (MIC)/microbroth dilution assays (Table 1). The MICs of all peptides were determined against a panel of Gram-negative and Gram-positive ESKAPE pathogens. Additionally, a strain of E. coli carrying the mcr-1 gene was included in the panel. The mcr-1 gene is a transferrable plasmid that confers resistance against colistin, a last-resort antibiotic for Gram-negative infections, by reducing the overall negative charge of lipopolysaccharide (LPS) through modification of lipid A with phosphoethanolamine. The propensity for cationic antibiotics to bind to the cell membrane is therefore reduced. This gene has been observed in more than 27 bacterial species over six continents.[26] The spread of the mcr-1 gene could render colistin ineffectual; therefore, novel antibacterials are urgently required to overcome this form of resistance.
(§2) All minimum inhibitory concentrations (MICs) were determined according to Clinical and Laboratory Standards Institute (CLSI) guidelines. Blood agar plates were inoculated with glycerol stocks of E. coli ATCC 25922, K. pneumoniae ATCC 13883, A. baumannii ATCC 17961, P. aeruginosa PAO1, and S. aureus USA300. The inoculated agar plates were then incubated for 16 h at 37 °C. Individually grown colonies were subsequently used to inoculate 5 mL aliquots of TSB that were then incubated at 37 °C with shaking at 220 rpm. E. coli 25922 MCR-1 glycerol stock was used to inoculate 5 mL of TSB supplemented with kanamycin that was then incubated for 16 h at 37 °C with shaking at 220 rpm. The next day the culture was diluted 100-fold in TSB supplemented with kanamycin and incubated at 37 °C with shaking at 220 rpm. In parallel, the lipopeptide antibiotics DMSO stocks to be assessed were serially diluted with MHB in polypropylene 96-well plates (50 μL in each well). Colistin sulfate stocks were dissolved in water before being diluted with MHB. Aliquots of the inoculated TSB were incubated until an OD600 of around 0.5 was reached. The bacterial suspensions were then diluted with MHB (2 × 10^5 CFU/mL) and added to the microplates containing the test compounds (50 μL to each well). The well plates were sealed with an adhesive membrane and after 18 h of incubation at 37 °C with shaking at 600 rpm, the wells were visually inspected for bacterial growth. MIC values reported are based on three technical replicates and defined as the lowest concentration of the compound that prevented visible growth of bacteria.

P. aeruginosa PAO1 = type: cell-based, Pseudomonas aeruginosa; settings: microbroth dilution per CLSI, MHB, 18 h at 37 °C, visual inspection, three technical replicates
Protocol: as §1, §2

E. coli (MCR-1) = type: cell-based, Escherichia coli; settings: microbroth dilution per CLSI, MHB, 18 h at 37 °C, visual inspection, three technical replicates, E. coli 25922 carrying mcr-1
Protocol: as §1, §2

E. coli ATCC 25922 = type: cell-based, Escherichia coli; settings: for Antibacterial activity (MIC) E. coli ATCC 25922: microbroth dilution per CLSI, MHB, 18 h at 37 °C, visual inspection, three technical replicates; for MIC (µg/mL) against E. coli (ATCC 25922): (Supplement 2)
Protocol: as §1, §2

A. baumannii ATCC 17961 = type: cell-based, Acinetobacter baumannii; settings: microbroth dilution per CLSI, MHB, 18 h at 37 °C, visual inspection, three technical replicates
Protocol: as §1, §2

S. aureus USA300 = type: cell-based, Staphylococcus aureus; settings: microbroth dilution per CLSI, MHB, 18 h at 37 °C, visual inspection, three technical replicates
Protocol: as §1, §2

Row | Compound | Antibacterial activity (MIC) K. pneumoniae ATCC 13883 (K. pneumoniae ATCC 13883) [µg/mL] | Antibacterial activity (MIC) P. aeruginosa PAO1 (P. aeruginosa PAO1) [µg/mL] | Antibacterial activity (MIC) E. coli (MCR-1) (E. coli (MCR-1)) [µg/mL] | Antibacterial activity (MIC) E. coli ATCC 25922 (E. coli ATCC 25922) [µg/mL] | Antibacterial activity (MIC) A. baumannii ATCC 17961 (A. baumannii ATCC 17961) [µg/mL] | Antibacterial activity (MIC) S. aureus USA300 (S. aureus USA300) [µg/mL] | MIC (µg/mL) against E. coli (ATCC 25922) (E. coli ATCC 25922) [µg/mL]
1 | CCC(C)CCC(=O)N[C@H](CC(N)=O)C(=O)N[C@H](Cc1ccc(O)cc1)C(=O)N[C@H](Cc1c[nH]c2ccccc12)C(=O)N[C@H](CCCN)C(=O)N[C@@H](CCCN)C(=O)NCC(=O)N[C@H](CCCN)C(=O)N[C@@H](Cc1c[nH]c2ccccc12)C(=O)N[C@@H]1C(=O)N[C@@H]([C@@H](C)CC)C(=O)NCC(=O)N[C@@H](CO)C(=O)O[C@@H]1C (stereo partly drawn) [Brev (1), brevicidine] ({Hexanoyl(4ξ-Me)}-[dN][dY][dW][dOrn][Orn]G[dOrn]WTIGS; ester 9-C) | 2 | 8 | 4 | 4 | 4 | >32 | –
2 | CCC(C)CCC(=O)N[C@H](CC(N)=O)C(=O)N[C@H](Cc1ccc(O)cc1)C(=O)N[C@H](Cc1c[nH]c2ccccc12)C(=O)N[C@H](CCCN)C(=O)N[C@@H](C)C(=O)NCC(=O)N[C@H](CCCN)C(=O)N[C@@H](Cc1c[nH]c2ccccc12)C(=O)N[C@H](C(=O)N[C@H](C(=O)NCC(=O)N[C@@H](CO)C(N)=O)[C@@H](C)CC)[C@@H](C)O (stereo partly drawn) [LB(Ala5)-NH2 (21)] ({Hexanoyl(4ξ-Me)}-[dN][dY][dW][dOrn]AG[dOrn]WTIGS-NH2) | – | – | – | – | – | – | >32
3 | CCC(C)CCC(=O)N[C@H](CC(N)=O)C(=O)N[C@H](Cc1ccc(O)cc1)C(=O)N[C@H](Cc1c[nH]c2ccccc12)C(=O)N[C@H](CCCN)C(=O)N[C@@H](CCCN)C(=O)NCC(=O)N[C@H](CCCN)C(=O)N[C@@H](C)C(=O)N[C@H](C(=O)N[C@H](C(=O)NCC(=O)N[C@@H](CO)C(N)=O)[C@@H](C)CC)[C@@H](C)O (stereo partly drawn) [LB(Ala8)-NH2 (24)] ({Hexanoyl(4ξ-Me)}-[dN][dY][dW][dOrn][Orn]G[dOrn]ATIGS-NH2) | – | – | – | – | – | – | >32
4 | CCC(C)CCC(=O)N[C@H](CC(N)=O)C(=O)N[C@H](Cc1ccc(O)cc1)C(=O)N[C@H](Cc1c[nH]c2ccccc12)C(=O)N[C@H](CCCN)C(=O)N[C@@H](CCCN)C(=O)NCC(=O)N[C@H](CCCN)C(=O)N[C@@H](Cc1c[nH]c2ccccc12)C(=O)N[C@H](C(=O)N[C@@H](C)C(=O)NCC(=O)N[C@@H](CO)C(N)=O)[C@@H](C)O (stereo partly drawn) [LB(Ala10)-NH2 (26)] ({Hexanoyl(4ξ-Me)}-[dN][dY][dW][dOrn][Orn]G[dOrn]WTAGS-NH2) | – | – | – | – | – | – | >32
5 | CCC(C)CCC(=O)N[C@H](CC(N)=O)C(=O)N[C@H](C)C(=O)N[C@H](Cc1c[nH]c2ccccc12)C(=O)N[C@H](CCCN)C(=O)N[C@@H](CCCN)C(=O)NCC(=O)N[C@H](CCCN)C(=O)N[C@@H](Cc1c[nH]c2ccccc12)C(=O)N[C@H](C(=O)N[C@H](C(=O)NCC(=O)N[C@@H](CO)C(N)=O)[C@@H](C)CC)[C@@H](C)O (stereo partly drawn) [LB(D-Ala2)-NH2 (18)] ({Hexanoyl(4ξ-Me)}-[dN][dA][dW][dOrn][Orn]G[dOrn]WTIGS-NH2) | – | – | – | – | – | – | >32
6 | CCC(C)CCC(=O)N[C@H](CC(N)=O)C(=O)N[C@H](Cc1ccc(O)cc1)C(=O)N[C@H](C)C(=O)N[C@H](CCCN)C(=O)N[C@@H](CCCN)C(=O)NCC(=O)N[C@H](CCCN)C(=O)N[C@@H](Cc1c[nH]c2ccccc12)C(=O)N[C@H](C(=O)N[C@H](C(=O)NCC(=O)N[C@@H](CO)C(N)=O)[C@@H](C)CC)[C@@H](C)O (stereo partly drawn) [LB(D-Ala3)-NH2 (19)] ({Hexanoyl(4ξ-Me)}-[dN][dY][dA][dOrn][Orn]G[dOrn]WTIGS-NH2) | – | – | – | – | – | – | >32
7 | CCC(C)CCC(=O)N[C@H](CC(N)=O)C(=O)N[C@H](Cc1ccc(O)cc1)C(=O)N[C@H](Cc1c[nH]c2ccccc12)C(=O)N[C@H](C)C(=O)N[C@@H](CCCN)C(=O)NCC(=O)N[C@H](CCCN)C(=O)N[C@@H](Cc1c[nH]c2ccccc12)C(=O)N[C@H](C(=O)N[C@H](C(=O)NCC(=O)N[C@@H](CO)C(N)=O)[C@@H](C)CC)[C@@H](C)O (stereo partly drawn) [LB(D-Ala4)-NH2 (20)] ({Hexanoyl(4ξ-Me)}-[dN][dY][dW][dA][Orn]G[dOrn]WTIGS-NH2) | >32 | 32 | >32 | >32 | 32 | >32 | –
8 | CCC(C)CCC(=O)N[C@H](CC(N)=O)C(=O)N[C@H](Cc1ccc(O)cc1)C(=O)N[C@H](Cc1c[nH]c2ccccc12)C(=O)N[C@H](CCCN)C(=O)N[C@@H](CCCN)C(=O)NCC(=O)N[C@H](C)C(=O)N[C@@H](Cc1c[nH]c2ccccc12)C(=O)N[C@H](C(=O)N[C@H](C(=O)NCC(=O)N[C@@H](CO)C(N)=O)[C@@H](C)CC)[C@@H](C)O (stereo partly drawn) [LB(D-Ala7)-NH2 (23)] ({Hexanoyl(4ξ-Me)}-[dN][dY][dW][dOrn][Orn]G[dA]WTIGS-NH2) | – | – | – | – | – | – | >32
9 | CCC(C)CCC(=O)N[C@H](CC(N)=O)C(=O)N[C@H](Cc1ccc(O)cc1)C(=O)N[C@H](Cc1c[nH]c2ccccc12)C(=O)N[C@H](CCCN)C(=O)N[C@@H](CCCN)C(=O)NCC(=O)N[C@H](CCCN)C(=O)N[C@@H](Cc1c[nH]c2ccccc12)C(=O)N[C@H](C(=O)N[C@H](C(=O)NCC(=O)N[C@@H](CO)C(=O)O)[C@@H](C)CC)[C@@H](C)O (stereo partly drawn) [LB-OH (5)] ({Hexanoyl(4ξ-Me)}-[dN][dY][dW][dOrn][Orn]G[dOrn]WTIGS-OH) | >32 | 16 | >32 | >32 | >32 | >32 | –
10 | CC[C@H](C)[C@H](NC(=O)[C@@H](NC(=O)[C@H](Cc1c[nH]c2ccccc12)NC(=O)[C@@H](CCCN)NC(=O)CNC(=O)[C@H](C)NC(=O)[C@@H](CCCN)NC(=O)[C@@H](Cc1c[nH]c2ccccc12)NC(=O)[C@@H](Cc1ccc(O)cc1)NC(=O)[C@@H](CO)NC(=O)CCCCCC(C)C)[C@@H](C)O)C(=O)N[C@@H](CC(N)=O)C(=O)NCC(=O)NCC(N)=O [LL(Ala5)-NH2 (33)] ({Octanoyl(7-Me)}-[dS][dY][dW][dOrn]AG[dOrn]WTINGG-NH2) | >32 | 32 | >32 | 32 | >32 | >32 | –
11 | CC[C@H](C)[C@H](NC(=O)[C@H](CN)NC(=O)[C@H](Cc1c[nH]c2ccccc12)NC(=O)[C@@H](CCCN)NC(=O)CNC(=O)[C@H](CCCN)NC(=O)[C@@H](CCCN)NC(=O)[C@@H](Cc1c[nH]c2ccccc12)NC(=O)[C@@H](Cc1ccc(O)cc1)NC(=O)[C@@H](CO)NC(=O)CCCCCC(C)C)C(=O)N[C@@H](CC(N)=O)C(=O)NCC(=O)NCC(N)=O [LL(Dap9)-NH2 (52)] ({Octanoyl(7-Me)}-[dS][dY][dW][dOrn][Orn]G[dOrn]W[Dap]INGG-NH2) | 32 | – | 8 | 8 | 16 | >32 | 8 (≈ 4.98 µM)
